Results taken from patent US10961242B2, “Compounds as autotaxin inhibitors and pharmaceutical compositions comprising the same” (LegoChem Biosciences, Inc., priority 2018, dated 2021).
Where a name gives a salt, the structure may show the parent alone.

The compounds below were run against human ENPP2 (Homo sapiens (Human), UniProt Q13822) (assay: Inhibitory activity on human ENPP2 (FS-3 assay)). Conditions: human ENPP2, FS-3 substrate, 30 min at 37° C.; read-out: IC50.
Assay type: biochemical
Experimental: Two-fold dilution of each test compound solution (10 μM, 100% dimethyl sulfoxide) is carried out on 96-well V bottom plate (Costar 3363). After ten-fold dilution of each the test compound solution (100% dimethyl sulfoxide) with deionized distilled water, 10 μL of the diluted each mpound solution (10% dimethyl sulfoxide) was aliquoted to a black flat bottom 96-well plate (Costar 3915).
With `CCN1CCN(Cc2nn(CC(=O)N3CCc4[nH]nnc4C3)cc2-c2cnc(NC3Cc4ccccc4C3)nc2)CC1` [Compound 91, 2-(4-{2-[(2,3-dihydro-1H-inden-2-yl)amino]pyrimidin-5-yl}-3-[(4-ethylpiperazin-1-yl)methyl]-1H-pyrazol-1-yl)-1-{1H,4H,5H,6H,7H-[1,2,3]triazolo[4,5-c]pyridin-5-yl}ethan-1-one] the IC50 was 2.4 nM. Compound `O=C(Cn1cc(-c2cnc(NC3Cc4ccccc4C3)nc2)c(CN2CCCNCC2)n1)N1CCc2[nH]nnc2C1` [Compound 90, 2-[3-(1,4-diazepan-1-ylmethyl)-4-{2-[(2,3-dihydro-1H-inden-2-yl)amino]pyrimidin-5-yl}-1H-pyrazol-1-yl]-1-{1H,4H,5H,6H,7H-[1,2,3]triazolo[4,5-c]pyridin-5-yl}ethan-1-one. HCl] has an IC50 of 2.6 nM. Work on `O=C(Cc1nnc(-c2cnc(NC3Cc4ccccc4C3)nc2)o1)N1CCc2[nH]ncc2C1` [Compound 42, 2-(5-{2-[(2,3-dihydro-1H-inden-2-yl)amino]pyrimidin-5-yl}-1,3,4-oxadiazol-2-yl)-1-{1H,4H,5H,6H,7H-pyrazolo[4,3-c]pyridin-5-yl}ethan-1-one] yielded an IC50 of 8.1 nM. `O=c1[nH]c2ccc(/C(CN3CCN(c4cnc(NC5Cc6ccccc6C5)nc4)CC3)=N\O)cc2o1` [Compound 29, 6-[(1E)-2-(4-{2-[(2,3-dihydro-1H-inden-2-yl)amino]pyrimidin-5-yl}piperazin-1-yl)-1-(hydroxyimino)ethyl]-2,3-dihydro-1,3-benzoxazol-2-one] showed an IC50 of 3.9 nM. In the case of `O=C(CN1CCc2[nH]nnc2C1)N1CCN(c2cnc(NC3Cc4ccccc4C3)nc2)CC1` [Compound 17, 1-(4-{2-[(2,3-dihydro-1H-inden-2-yl)amino]pyrimidin-5-yl}piperazin-1-yl)-2-{1H,4H,5H,6H,7H-[1,2,3]triazolo[4,5-c]pyridin-5-yl}ethan-1-one], the IC50 is reported as 3.4 nM. Work on `O=c1[nH]c2ccc(C3=NOC(CN4CCN(c5cnc(NC6Cc7ccccc7C6)nc5)CC4)C3)cc2o1` (stereo not drawn) [Compound 31, 6-{5-[(4-{2-[(2,3-dihydro-1H-inden-2-yl)amino]pyrimidin-5-yl}piperazin-1-yl)methyl]-4,5-dihydro-1,2-oxazol-3-yl}-2,3-dihydro-1,3-benzoxazol-2-one] yielded an IC50 of 11.8 nM. `O=C(Cc1nnc(-c2cnc(NC3Cc4ccccc4C3)nc2)o1)N1CCc2[nH]nnc2C1` [Compound 33, 2-(5-(2-((2,3-dihydro-1H-inden-2-yl)amino)pyrimidin-5-yl)-1,3,4-oxadiazol-2-yl)-1-(1,4,6,7-tetrahydro-5H-[1,2,3]triazolo[4,5-c]pyridin-5-yl) ethan-1-one] gave an IC50 of 2.4 nM. In the case of `O=C(c1cnc(NCc2cccc(OC(F)(F)F)c2)nc1)N1CCC2(CC1)CC(CN1CCc3[nH]nnc3C1)=NO2` [Compound 8, 5-(3-{1H,4H,5H,6H,7H-[1,2,3]triazolo[4,5-c]pyridin-5-ylmethyl}-1-oxa-2,8-diazaspiro[4,5]dec-2-ene-8-carbonyl)-N-{[3-(trifluoromethoxy)phenyl]methyl}pyrimidin-2-amine], the IC50 is reported as 3.5 nM. `O=C(CN1CCN(c2cnc(NC3Cc4ccccc4C3)nc2)CC1)c1ccc2[nH]c(=O)oc2c1` [Compound 28, 6-[2-(4-{2-[(2,3-dihydro-1H-inden-2-yl)amino]pyrimidin-5-yl}piperazin-1-yl)acetyl]-2,3-dihydro-1,3-benzoxazol-2-one] showed an IC50 of 3.1 nM. Compound `O=C(CCc1ccc2[nH]c(=O)oc2c1)N1CCC(c2cnc(NC3Cc4ccccc4C3)nc2)CC1` [Compound 16, 6-[3-(4-{2-[(2,3-dihydro-1H-inden-2-yl)amino]pyrimidin-5-yl}piperidin-1-yl)-3-oxopropyl]-2,3-dihydro-1,3-benzoxazol-2-one] has an IC50 of 2.2 nM. `O=C(NCCC(=O)N1CCc2[nH]nnc2C1)c1cnc(NC2Cc3ccccc3C2)nc1` [Compound 1, 2-[(2,3-dihydro-1H-inden-2-yl)amino]-N-(3-oxo-3-{1H,4H,5H,6H,7H-[1,2,3]triazolo[4,5-c]pyridin-5-yl}propyl)pyrimidine-5-carboxamide] gave an IC50 of 3.3 nM. `Nc1nc2c(s1)CCN(C(=O)Cc1nnc(-c3cnc(NC4Cc5ccccc5C4)nc3)o1)C2` [Compound 43, 1-{2-amino-4H,5H,6H,7H-[1,3]thiazolo[4,5-c]pyridin-5-yl}-2-(5-{2-[(2,3-dihydro-1H-inden-2-yl)amino]pyrimidin-5-yl}-1,3,4-oxadiazol-2-yl)ethan-1-one] was tested, and the IC50 was 11.2 nM. `CC(NC(=O)c1cnc(NCc2cccc(OC(F)(F)F)c2)nc1)C(=O)N1CCc2[nH]nnc2C1` (stereo not drawn) [Compound 4, N-(1-oxo-1-{1H,4H,5H,6H,7H-[1,2,3]triazolo[4,5-c]pyridin-5-yl}propan-2-yl)-2-({[3-(trifluoromethoxy)phenyl]methyl}amino)pyrimidine-5-carboxamide] gave an IC50 of 18.9 nM. In the case of `O=C(CCN1CCN(c2cnc(NC3Cc4ccccc4C3)nc2)CC1)N1CCc2[nH]nnc2C1` [Compound 23], the IC50 is reported as 6.8 nM. Work on `O=C(Cc1nnc(-c2cnc(NC3Cc4ccccc4C3)nc2)o1)N1CCc2cn[nH]c2C1` [Compound 44, 2-(5-{2-[(2,3-dihydro-1H-inden-2-yl)amino]pyrimidin-5-yl}-1,3,4-oxadiazol-2-yl)-1-{1H,4H,5H,6H,7H-pyrazolo[3,4-c]pyridin-6-yl}ethan-1-one] yielded an IC50 of 16.6 nM. `O=C1O[C@@H](CN2CCN(c3cnc(NC4Cc5ccccc5C4)nc3)CC2)CN1c1ccc2[nH]c(=O)oc2c1` [Compound 26, 6-[(5S)-5-[(4-{2-[(2,3-dihydro-1H-inden-2-yl)amino]pyrimidin-5-yl}piperazin-1-yl)methyl]-2-oxo-1,3-oxazolidin-3-yl]-2,3-dihydro-1,3-benzoxazol-2-one] was tested, and the IC50 was 13.1 nM. `O=C(Cc1nnc(-c2cnc(NC3Cc4ccccc4C3)nc2)o1)N1CCc2[nH]c(=O)ccc2C1` [Compound 39, 6-[2-(5-{2-[(2,3-dihydro-1H-inden-2-yl)amino]pyrimidin-5-yl}-1,3,4-oxadiazol-2-yl)acetyl]-1,2,5,6,7,8-hexahydro-1,6-naphthyridin-2-one] gave an IC50 of 10.6 nM. Compound `O=C(CN1CCN(c2cnc(NCc3cccc(OC(F)(F)F)c3)nc2)CC1)N1CCc2[nH]nnc2C1` [Compound 21, 1-{1H,4H,5H,6H,7H-[1,2,3]triazolo[4,5-c]pyridin-5-yl}-2-{4-[2-({[3-(trifluoromethoxy)phenyl]methyl}amino)pyrimidin-5-yl]piperazin-1-yl}ethan-1-one] has an IC50 of 4.1 nM. With `CCc1nn(CC(=O)N2CCN(C(=O)CO)CC2)cc1-c1cnc(NC2Cc3ccccc3C2)nc1` [Compound 94, 1-{4-[2-(4-{2-[(2,3-dihydro-1H-inden-2-yl)amino]pyrimidin-5-yl}-3-ethyl-1H-pyrazol-1-yl)acetyl]piperazin-1-yl}-2-hydroxyethan-1-one] the IC50 was 2.3 nM. Work on `O=C(Cc1nnc(-c2ccc(NC3Cc4ccccc4C3)nc2)o1)N1CCc2[nH]nnc2C1` [Compound 36, 2-(5-{6-[(2,3-dihydro-1H-inden-2-yl)amino]pyridin-3-yl}-1,3,4-oxadiazol-2-yl)-1-{1H,4H,5H,6H,7H-[1,2,3]triazolo[4,5-c]pyridin-5-yl}ethan-1-one] yielded an IC50 of 2.9 nM. Work on `O=C(Cn1cc(-c2cnc(NC3Cc4ccccc4C3)nc2)c(CCN2CCOCC2)n1)N1CCc2[nH]nnc2C1` [Compound 93, 2-(4-{2-[(2,3-dihydro-1H-inden-2-yl)amino]pyrimidin-5-yl}-3-[2-(morpholin-4-yl)ethyl]-1H-pyrazol-1-yl)-1-{1H,4H,5H,6H,7H-[1,2,3]triazolo[4,5-c]pyridin-5-yl}ethan-1-one] yielded an IC50 of 2.1 nM.
